Test results from US20220323406A1, “METHODS AND COMPOSITIONS FOR DIFFERENTIATING STEM CELLS” (Massachusetts Institute of Technology, priority 2019, published 2022).
Where a name gives a salt, the structure may show the parent alone.

Experiments:
[1] = system: ENR+CD organoids (ISC to Paneth cell differentiation); assay: Primary screen: basal (non-stimulated) lysozyme secretion LYZ.NS, 2.5-D 384-well ENR+CD organoid differentiation; assay type: cell-based, mouse
From the text: (§1) High-throughput screening.

[2] = system: ENR+CD organoids (ISC to Paneth cell differentiation); assay: Primary screen: CCh-stimulated lysozyme secretion LYZ.S, 2.5-D 384-well ENR+CD organoid differentiation; assay type: cell-based, mouse; settings: primary screen
From the text: as §1

ENR+CD organoids = assay: Primary screen: ATP (CellTiter-Glo 3D, CTG) cell number/viability, 2.5-D 384-well ENR+CD organoids; settings: primary screen; for Z.CTG: standard z score;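 for all read-outs here: compounds given at plating and again on day 3 over a 6-day differentiation from ENR+CV stem-cell-enriched precursors, ATP measured on day 6, plate median as control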
[3] = dose 0.08 uM, FC vs plate median
[4] = dose 0.40 uM, FC vs plate median
[5] = dose 2.00 uM, FC vs plate median
[6] = dose 10.00 uM, FC vs plate median

Compound: O=C(O)/C=C/c1ccc(Cn2ccnc2)cc1 [Ozagrel HCl]
- Z.LYZ.NS ([1]; primary screen, dose 0.08 uM, standard z score): 1.756
- Z.LYZ.NS ([1]; primary screen, dose 0.40 uM, standard z score): 0.000
- Z.LYZ.NS ([1]; primary screen, dose 2.00 uM, standard z score): 0.308
- Z.LYZ.NS ([1]; primary screen, dose 10.00 uM, standard z score): −0.061
- Dose.FC.LYZ.NS ([1]; primary screen; dose 0.08 uM; FC vs plate median): 0.202 log2 fold change
- Dose.FC.LYZ.NS ([1]; primary screen; dose 0.40 uM; FC vs plate median): 0.000 log2 fold change
- Dose.FC.LYZ.NS ([1]; primary screen; dose 2.00 uM; FC vs plate median): 0.035 log2 fold change
- Dose.FC.LYZ.NS ([1]; primary screen; dose 10.00 uM; FC vs plate median): −0.007 log2 fold change
- Dose.FC.LYZ.S [2, 3]: 0.119 log2 fold change
- Dose.FC.LYZ.S [2, 4]: 0.073 log2 fold change
- Dose.FC.LYZ.S [2, 5]: 0.135 log2 fold change
- Dose.FC.LYZ.S [2, 6]: 0.061 log2 fold change
- Dose.FC.CTG (ENR+CD organoids; [3]): 0.049 log2 fold change
- Dose.FC.CTG (ENR+CD organoids; [4]): 0.133 log2 fold change
- Dose.FC.CTG (ENR+CD organoids; [5]): 0.183 log2 fold change
- Dose.FC.CTG (ENR+CD organoids; [6]): 0.229 log2 fold change

Compound: CC(C)C[C@H](NC(=O)[C@@H](NC(=O)c1cccc(-c2ccccc2)n1)[C@@H](C)O)B(O)O [CEP-18770 (Delanzomib)]
- Dose.FC.LYZ.NS ([1]; primary screen, dose 0.08 uM): −0.108 log2 fold change
- Dose.FC.LYZ.NS ([1]; primary screen, dose 0.40 uM): −0.076 log2 fold change
- Dose.FC.LYZ.NS ([1]; primary screen, dose 2.00 uM): −0.063 log2 fold change
- Dose.FC.LYZ.NS ([1]; primary screen, dose 10.00 uM): −0.035 log2 fold change
- Z.LYZ.NS ([1]; primary screen, standard z score, dose 0.08 uM): −0.937
- Z.LYZ.NS ([1]; primary screen, standard z score, dose 0.40 uM): −0.664
- Z.LYZ.NS ([1]; primary screen, standard z score, dose 2.00 uM): −0.546
- Z.LYZ.NS ([1]; primary screen, standard z score, dose 10.00 uM): −0.308
- Dose.FC.LYZ.S ([2]; dose 0.08 uM): −0.179 log2 fold change
- Dose.FC.LYZ.S ([2]; dose 0.40 uM): −0.159 log2 fold change
- Dose.FC.LYZ.S ([2]; dose 2.00 uM): −0.180 log2 fold change
- Dose.FC.LYZ.S ([2]; dose 10.00 uM): −0.149 log2 fold change
- Dose.FC.CTG (ENR+CD organoids; dose 0.08 uM): −0.953 log2 fold change
- Dose.FC.CTG (ENR+CD organoids; dose 0.40 uM): −1.642 log2 fold change
- Dose.FC.CTG (ENR+CD organoids; dose 2.00 uM): −0.990 log2 fold change
- Dose.FC.CTG (ENR+CD organoids; dose 10.00 uM): −1.148 log2 fold change
- Z.CTG (ENR+CD organoids; dose 0.08 uM): −2.276
- Z.CTG (ENR+CD organoids; dose 0.40 uM): −3.923
- Z.CTG (ENR+CD organoids; dose 2.00 uM): −2.364
- Z.CTG (ENR+CD organoids; dose 10.00 uM): −2.742

Compound: Clc1ccc(N/N=C(\c2ccccc2)c2ccccn2)nc1 [JIB-04]
- Dose.FC.LYZ.NS (log2 fold change) ([1]; primary screen, dose 0.08 uM): 0.178
- Z.LYZ.NS (standard z score) ([1]; primary screen, dose 0.08 uM): 1.549
- Dose.FC.LYZ.NS (log2 fold change) ([1]; primary screen, dose 0.40 uM): 0.030
- Z.LYZ.NS (standard z score) ([1]; primary screen, dose 0.40 uM): 0.264
- Dose.FC.LYZ.NS (log2 fold change) ([1]; primary screen, dose 2.00 uM): 0.006
- Z.LYZ.NS (standard z score) ([1]; primary screen, dose 2.00 uM): 0.048
- Dose.FC.LYZ.NS (log2 fold change) ([1]; primary screen, dose 10.00 uM): −0.153
- Z.LYZ.NS (standard z score) ([1]; primary screen, dose 10.00 uM): −1.330
- Dose.FC.LYZ.S (log2 fold change) ([2]; dose 0.08 uM): 0.203
- Dose.FC.LYZ.S (log2 fold change) ([2]; dose 0.40 uM): 0.084
- Dose.FC.LYZ.S (log2 fold change) ([2]; dose 2.00 uM): −0.056
- Dose.FC.LYZ.S (log2 fold change) ([2]; dose 10.00 uM): −0.085
- Dose.FC.CTG (log2 fold change) (ENR+CD organoids; dose 0.08 uM): 0.254
- Z.CTG (standard z score) (ENR+CD organoids; dose 0.08 uM): 0.607
- Dose.FC.CTG (log2 fold change) (ENR+CD organoids; dose 0.40 uM): 0.108
- Z.CTG (standard z score) (ENR+CD organoids; dose 0.40 uM): 0.258
- Dose.FC.CTG (log2 fold change) (ENR+CD organoids; dose 2.00 uM): 0.092
- Z.CTG (standard z score) (ENR+CD organoids; dose 2.00 uM): 0.219
- Dose.FC.CTG (log2 fold change) (ENR+CD organoids; dose 10.00 uM): −0.181
- Z.CTG (standard z score) (ENR+CD organoids; dose 10.00 uM): −0.433

Compound: CC12CC3CC(C)(C1)CC(N)(C3)C2 [Memantine HCl]
- Dose.FC.LYZ.NS (log2 fold change) ([1]; primary screen, dose 0.08 uM): 0.069
- Z.LYZ.NS (standard z score) ([1]; primary screen, dose 0.08 uM): 0.598
- Dose.FC.LYZ.NS (log2 fold change) ([1]; primary screen, dose 0.40 uM): 0.004
- Z.LYZ.NS (standard z score) ([1]; primary screen, dose 0.40 uM): 0.032
- Dose.FC.LYZ.NS (log2 fold change) ([1]; primary screen, dose 2.00 uM): 0.106
- Z.LYZ.NS (standard z score) ([1]; primary screen, dose 2.00 uM): 0.919
- Dose.FC.LYZ.NS (log2 fold change) ([1]; primary screen, dose 10.00 uM): −0.047
- Z.LYZ.NS (standard z score) ([1]; primary screen, dose 10.00 uM): −0.411
- Dose.FC.LYZ.S (log2 fold change) ([2]; dose 0.08 uM): 0.091
- Dose.FC.LYZ.S (log2 fold change) ([2]; dose 0.40 uM): 0.017
- Dose.FC.LYZ.S (log2 fold change) ([2]; dose 2.00 uM): 0.051
- Dose.FC.LYZ.S (log2 fold change) ([2]; dose 10.00 uM): −0.021
- Dose.FC.CTG (log2 fold change) (ENR+CD organoids; dose 0.08 uM): 0.083
- Dose.FC.CTG (log2 fold change) (ENR+CD organoids; dose 0.40 uM): 0.072
- Dose.FC.CTG (log2 fold change) (ENR+CD organoids; dose 2.00 uM): −0.007
- Dose.FC.CTG (log2 fold change) (ENR+CD organoids; dose 10.00 uM): 0.077
